Measured values taken from publication PMC10388311, “Innovative Strategy toward Mutant CFTR Rescue in Cystic Fibrosis: Design and Synthesis of Thiadiazole Inhibitors of the E3 Ligase RNF5” (Journal of Medicinal Chemistry, 2023).
≈ marks a conversion by molar mass, not a printed value.

Legend:
[1] = test system: ATG4B-mediated basal autophagy in F508del-CFTR-expressing CFBE41o– cells; experiment: Labeling of autophagic vacuoles with monodansylcadaverine (MDC); format: cell-based, human; details: test compounds 5 μM 24 h; torin-1 20 nM and SAR-405 2 μM in the last 3 h
Excerpt: To further support our hypothesis that CFTR rescue following treatment with test compounds was indeed due to RNF5 inhibition, we considered additional biological processes known to be regulated by RNF5 ligase activity. To this aim, we focused our attention on ATG4B, a known regulator of basal autophagy, whose degradation is mediated by RNF5 activity.[54]In vivo ubiquitination experiments previously confirmed that inh-2 inhibits ATG4B degradation, thus increasing the basal level of autophagy.[40] […] We thus evaluated the effect of inh-2 analogues on induction of the autophagy pathway. To this aim, we monitored the formation of autophagic vacuoles in F508del-CFTR-expressing CFBE41o^– cells (Figure 8) by using the autolysosome marker monodansylcadaverine (MDC). MDC accumulates inside autophagosomes. After fusion of autophagosomes with lysosomes, MDC fluorescence increases due to the acidic environment.[55] Therefore, F508del-CFTR-expressing CFBE41o^– cells were treated for 24 h with test compounds (5 μM), VX-809 (1 μM), or DMSO alone (vehicle). In the last 3 h of incubation, we added torin-1 (20 nM), a known autophagy inducer, and SAR-405 (2 μM), a potent inhibitor of the autophagic pathway. The cells were then loaded with MDC and evaluated by high-content confocal imaging to detect signal spots (corresponding to autophagic vacuoles) in each cell.
CFBE41o^– cells stably expressing F508del-CFTR and the HS-YFP were plated (50,000 cells/well) on good-quality clear-bottom 96-well black microplates suitable for high-content imaging. After 24 h, cells were treated with test compounds or DMSO (as the negative control). […] After 24 h, cells were incubated with 50 μM MDC (Sigma-Aldrich) in PBS at 37 °C for 10 min.[62] After incubation, cells were washed three times with PBS and immediately analyzed. High-content imaging and data analysis were performed using the Opera Phenix (PerkinElmer) high-content screening system. Wells were imaged in confocal mode using a 40× water-immersion objective. The MDC signal was laser-excited at 405 nm, and the emission wavelengths were collected between 435 and 550 nm. Data analysis of MDC spot number was performed using the Harmony software (ver 4.5) of the Opera Phenix high-content system. Data are expressed as means ± SEM, n = 3 independent experiments. Statistical significance was tested by parametric ANOVA followed by the Dunnet multiple comparisons test (all groups against the control group).

[2] = target: F508del-CFTR in CFBE41o– cells (Homo sapiens, UniProt Q99942); experiment: HS-YFP microfluorimetric assay of F508del-CFTR rescue (corrector activity); format: cell-based; details: CFBE41o– cells co-expressing F508del-CFTR and HS-YFP, 24 h treatment, Figure 5
Protocol: As a primary screen, the new thiadiazole derivatives 1–46 (Table 1) were tested for their ability to rescue the F508del-CFTR trafficking defect in CFBE41o^– cells, stably co-expressing F508del-CFTR and the HS-YFP (Figure 5). This cell line has been extensively used by our group, in combination with the microfluorimetric assay based on the HS-YFP, to identify and characterize many CFTR correctors.[39],[47] This assay relies on the hypothesis that RNF5 inhibition results in increased mutant CFTR processing and activity. Therefore, it can easily identify putative RNF5 inhibitors, but not other types of RNF5-binding compounds that could have no effect or have a negative effect on CFTR function, such as RNF5 activators (see analog-1). Thus, we opted for this assay as our primary aim was the identification of RNF5 inhibitors as a possible therapeutic strategy in CF. Twenty-four hours after seeding on 96-well plates, CFBE41o^– cells stably expressing F508del-CFTR and the HS-YFP were treated with test compounds at the desired concentration, one compound per well. Cells treated with vehicle alone (DMSO) and with corrector VX-809 (1 μM), respectively, served as negative and positive controls. At the time of the assay, cells were washed with PBS containing (in […]) 137 NaCl, 2.7 KCl, 8.1 Na2HPO4, 1.5 KH2PO4, 1 CaCl2, and 0.5 MgCl2. Cells were then incubated for 25 min with […] of PBS plus forskolin (20 μM) and VX-770 (1 μM) to maximally stimulate F508del-CFTR. Cells were then transferred to a microplate reader (FluoStar Galaxy; BMG Labtech, Offenburg, Germany) for CFTR activity determination. The plate reader was equipped with high-quality excitation (HQ500/20X: 500 ± 10 nm) and emission (HQ535/30M: 535 ± 15 nm) filters for YFP (Chroma Technology). Each assay comprised a continuous 14 s fluorescence reading and 2 s before and 12 s after injection of […] of an iodide-containing solution (PBS with Cl^– replaced by I^–; final I^– concentration […]). Data were normalized to the initial background-subtracted fluorescence. To determine the I^– influx rate, the final 11 s of the data for each well was fitted with an exponential function to extrapolate initial slope (dF/dt). Reproducibility of results was confirmed by performing three independent experiments. CFBE41o^– cells co-expressing F508del-CFTR and the HS-YFP were reverse-transfected with 50 nM (final concentration) siRNAs (Stealth, Life Technologies) in the presence of lipofectamine 2000 as a transfection agent. The following day, the medium was changed, and the cells were incubated at 37 °C for additional 24 h treated with test compounds at the desired concentration, prior to processing the cells for the YFP-based functional assay.

[3] = Solubility and aggregation in PBS buffer by NMR (SPAM filter, 1H 1D and WaterLOGSY); format: physicochemical; details: PBS pH 7.5, 1 μM ZnCl2, 1 mM DTT, 10% D2O, 1% DMSO-d6; for solubility: PBS buffer, aqueous buffer, kinetic from dmso stock, theoretical concentration 20 μM, read-out: solubility in PBS buffer by NMR, 20 μM; for aggregation in PBS buffer by NMR: WaterLOGSY
Excerpt: Under these circumstances, it was decided to explore the solubility of all the synthetized compounds, regardless of their biological activities, to find a suitable candidate for the validation of our working hypothesis, i.e., that the compounds exert their activities by directly binding to RNF5. For that, we first calculated the predicted octanol/water partition coefficient (log Po/w) and the predicted aqueous solubility (log S) of all the analogues by QikProp (Schrödinger Release 2022-1: QikProp, Schrödinger, LLC, New York, NY, 2021, Table S1). […] To shrink down the number of compounds for solubility experiments, just the ones that had −2.0 < log Po/w < 6 and −6.5 < log S <0.5 values were selected. Among them, the PBS solubility was determined for five representative analogues: (i) 12 and 29 bearing different substituents on the benzyl group A; (ii) 34 and 40 showing the replacement of rings B and C with pyridine-4-yl moieties; (iii) 42 in which the N-phenylbenzamidine portion was replaced with a pyridine-2-yl moiety (Table 1).
All the NMR experiments were recorded at 298 K using a 5 mm CryoProbe QCI ^1H/^19F–^13C/^15N–D quadruple resonance, a shielded z-gradient coil, and an automatic sample changer SampleJet NMR system with temperature control. The solubility of the compounds were evaluated by ^1H 1D experiments and aggregation by WaterLOGSY, testing the compounds in buffer PBS pH 7,5, 1 μM ZnCl2, 1 mM DTT, 10% D2O (for the lock signal), and 1% DMSO-d6 at the theoretical concentrations of 20, 50, and 100 μM in the presence of 200 μM 4-trifluoromethyl benzoic acid (internal reference). For all samples, a 1D ^1H NMR experiment was recorded, the water suppression was obtained using the standard NOESY (nuclear Overhauser effect spectroscopy) preset Bruker pulse sequence, with 64k data points, a spectral width (sw) of 30 ppm, 64 scans, acquisition time (aq) of 1.835 s, a relaxation delay (d1) of 4 s, and a mixing time of 10 ms. […] The data were multiplied by an exponential window function with 1 Hz line broadening prior to Fourier transformation. For NMR binding experiments, the compounds were tested at 50 μM in buffer PBS pH 7.5, 1 μM ZnCl2, 1 mM DTT, 10% D2O (for the lock signal), and 1% DMSO-d6 in the absence and in the presence of 3 μM RNF5. WaterLOGSY experiments were recorded with the same parameters used in solubility assays, but with a higher number of scans (512); STD experiments were recorded with 128 scans, with two on (0.7 and 1 ppm) and one off (−50 ppm) resonance spectra, a Gaussian-shaped train pulse of 50 ms each was employed, with a total saturation time of the protein envelope of 5, 3, 2, 1.5, 1, or 0.5 s. A T1ρ filter of 2 ms was employed in STD experiments to eliminate the background signals from the protein. The STD spectrum was obtained by subtraction of the on-resonance spectrum from the off-resonance spectrum. Subtraction was performed by phase cycling to minimize artifacts arising from magnet and temperature instabilities.

F508del-CFTR in CFBE41o– cells, sequence (Q99942 2-180): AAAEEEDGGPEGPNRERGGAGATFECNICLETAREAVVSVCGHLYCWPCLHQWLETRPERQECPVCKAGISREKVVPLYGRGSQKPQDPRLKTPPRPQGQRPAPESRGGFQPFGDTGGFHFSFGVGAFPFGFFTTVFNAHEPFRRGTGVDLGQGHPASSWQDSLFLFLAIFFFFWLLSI
F508del-CFTR in CFBE41o– cells, sequence (P13569 with tags, fused parts or gaps DEL508-508 partner): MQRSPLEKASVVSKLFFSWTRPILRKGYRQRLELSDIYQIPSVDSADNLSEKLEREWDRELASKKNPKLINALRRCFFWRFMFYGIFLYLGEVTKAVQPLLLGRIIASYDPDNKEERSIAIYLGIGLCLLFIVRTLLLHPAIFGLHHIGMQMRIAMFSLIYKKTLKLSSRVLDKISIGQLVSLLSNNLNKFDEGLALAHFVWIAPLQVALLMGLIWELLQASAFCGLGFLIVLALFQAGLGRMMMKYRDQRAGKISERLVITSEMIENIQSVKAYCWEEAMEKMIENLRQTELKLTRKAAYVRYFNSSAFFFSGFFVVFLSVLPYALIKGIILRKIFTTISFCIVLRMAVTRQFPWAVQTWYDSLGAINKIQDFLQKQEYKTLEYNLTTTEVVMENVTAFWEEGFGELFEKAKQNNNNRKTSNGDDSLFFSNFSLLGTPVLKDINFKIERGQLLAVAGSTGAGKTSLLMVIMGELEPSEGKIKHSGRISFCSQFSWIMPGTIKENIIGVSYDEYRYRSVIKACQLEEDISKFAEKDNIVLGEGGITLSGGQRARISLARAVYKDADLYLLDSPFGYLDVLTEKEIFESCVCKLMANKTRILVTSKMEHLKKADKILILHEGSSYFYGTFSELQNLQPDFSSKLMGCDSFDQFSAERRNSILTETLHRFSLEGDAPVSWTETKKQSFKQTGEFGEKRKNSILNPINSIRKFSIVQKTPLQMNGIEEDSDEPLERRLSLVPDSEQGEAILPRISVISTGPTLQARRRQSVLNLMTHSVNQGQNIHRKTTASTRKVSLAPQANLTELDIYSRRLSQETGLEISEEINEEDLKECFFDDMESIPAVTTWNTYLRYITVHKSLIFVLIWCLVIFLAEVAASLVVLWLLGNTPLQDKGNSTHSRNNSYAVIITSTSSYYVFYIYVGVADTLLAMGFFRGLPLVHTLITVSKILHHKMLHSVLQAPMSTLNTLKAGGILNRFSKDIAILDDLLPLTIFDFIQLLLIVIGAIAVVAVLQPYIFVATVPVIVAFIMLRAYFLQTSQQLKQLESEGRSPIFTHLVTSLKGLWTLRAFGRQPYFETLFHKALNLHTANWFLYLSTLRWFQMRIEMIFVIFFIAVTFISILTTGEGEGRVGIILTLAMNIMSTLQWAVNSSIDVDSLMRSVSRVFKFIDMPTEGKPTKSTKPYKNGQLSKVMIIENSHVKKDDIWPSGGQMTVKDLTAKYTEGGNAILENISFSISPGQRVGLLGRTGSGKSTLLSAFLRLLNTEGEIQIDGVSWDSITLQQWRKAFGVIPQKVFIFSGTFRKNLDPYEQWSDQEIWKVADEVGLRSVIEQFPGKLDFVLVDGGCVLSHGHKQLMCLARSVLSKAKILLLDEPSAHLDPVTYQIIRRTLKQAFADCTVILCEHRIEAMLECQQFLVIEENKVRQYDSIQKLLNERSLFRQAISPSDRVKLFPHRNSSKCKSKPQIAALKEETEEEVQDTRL

**Q.** Which “number of autophagic vacuoles (MDC signal spots)” value (shortened to “number of autophagic vacuoles”) [1] does the source give for `Cc1ns/c(=N\C(=N\c2ccccc2)c2ccccc2)n1Cc1ccc(F)cc1` [Compound 9, (E)-N-((Z)-4-(4-Fluorobenzyl)-3-methyl-1,2,4-thiadiazol-5(4H)-ylidene)-N′-phenylbenzimidamide] here?
**A.** Its value is “significantly decreased”.

**Q.** And the “F508del-CFTR corrector activity compared with inh-2 (CFTR activity, primary screen)” value [2]?
**A.** Its value is “maintained the activity unaltered”.

**Q.** Which “number of autophagic vacuoles” value [1] does the source give for `CCC(=O)N1CCN(c2ccc(-n3c(=O)ccc4cnc5ccc(-c6cnc7ccccc7c6)cc5c43)cc2C(F)(F)F)CC1` [torin-1, reference compound] here?
**A.** Its value is “significantly increased”.

**Q.** Which solubility [3] does the source give for `Cc1ns/c(=N\C(=N\c2ccccc2)c2ccncc2)n1Cc1ccccc1` [Compound 34, (E)-N-((Z)-4-Benzyl-3-methyl-1,2,4-thiadiazol-5(4H)-ylidene)-N′-phenylisonicotinimidamide] here?
**A.** Its solubility is 10 µM (≈ 3.85 µg/mL).

**Q.** And the “aggregation in PBS buffer by NMR” value [3]?
**A.** The value was “no”.

**Q.** What about the “number of autophagic vacuoles” value [1] of the same compound?
**A.** Its value is “significantly decreased”.

**Q.** What about the “F508del-CFTR corrector activity compared with inh-2 (CFTR activity, primary screen)” value [2] of the same compound?
**A.** Its value is “maintaining the activity equal to inh-2”.

**Q.** What does the source list for `CNc1cccc(Cn2c(C)ns/c2=N\C(=N\c2ccccc2)c2ccccc2)c1` [Compound 21, (E)-N-((Z)-3-Methyl-4-(3-(methylamino)benzyl)-1,2,4-thiadiazol-5(4H)-ylidene)-N′-phenylbenzimidamide]?
**A.** number of autophagic vacuoles (MDC signal spots) [1]: significantly increased; F508del-CFTR corrector activity compared with inh-2 (CFTR activity, primary screen) [2]: did not affect the activity

**Q.** Which “number of autophagic vacuoles” value [1] does the source give for `C[C@@H]1COCCN1c1cc(=O)n2c(n1)N(Cc1cncc(Cl)c1)[C@H](C(F)(F)F)CC2` [SAR-405, reference compound] here?
**A.** Its value is “significantly decreased”.

**Q.** Which solubility [3] does the source give for `Cc1ns/c(=N\C(=N\c2ccccc2)c2ccccc2)n1Cc1ccccc1N` [Compound 29, (E)-N-((Z)-4-(2-Aminobenzyl)-3-methyl-1,2,4-thiadiazol-5(4H)-ylidene)-N′-phenylbenzimidamide] here?
**A.** The solubility was less than 5 µM.

**Q.** And the “aggregation in PBS buffer by NMR” value [3]?
**A.** Its value is “no”.

**Q.** What about the solubility at 50 µM ([3]; theoretical concentration 50 μM) of the same compound?
**A.** Its solubility at 50 µM is less than 5 µM.

**Q.** What about the solubility at 100 µM ([3]; theoretical concentration 100 μM) of the same compound?
**A.** Its solubility at 100 µM is less than 5 µM.

**Q.** What about the “F508del-CFTR corrector activity compared with inh-2 (CFTR activity, primary screen)” value [2] of the same compound?
**A.** Its value is “comparable activity to the unsubstituted original hit inh-2”.

**Q.** With `Cc1ns/c(=N\C(=N\c2ccccc2)c2cccnc2)n1Cc1ccccc1` [Compound 35, (E)-N-((Z)-4-Benzyl-3-methyl-1,2,4-thiadiazol-5(4H)-ylidene)-N′-phenylnicotinimidamide] as the compound, how does the “F508del-CFTR corrector activity compared with inh-2 (CFTR activity, primary screen)” value [2] read?
**A.** Its value is “drop of activity”.

**Q.** For `Cc1ns/c(=N\C(=N\Cc2ccccc2)c2ccccc2)n1Cc1ccccc1` [Compound 38, (E)-N′-Benzyl-N-((Z)-4-benzyl-3-methyl-1,2,4-thiadiazol-5(4H)-ylidene)benzimidamide], which “F508del-CFTR corrector activity compared with inh-2 (CFTR activity, primary screen)” value [2] is on record?
**A.** The value was “inactive analogs”.

**Q.** Which “number of autophagic vacuoles” value [1] does the source give for `Cc1ns/c(=N\C(=N\c2ccccc2)c2ccccc2)n1Cc1ccc(Br)cc1` [Compound 11, (E)-N-((Z)-4-(4-Bromobenzyl)-3-methyl-1,2,4-thiadiazol-5(4H)-ylidene)-N′-phenylbenzimidamide] here?
**A.** Its value is “significantly increased”.

**Q.** And the “F508del-CFTR corrector activity compared with inh-2 (CFTR activity, primary screen)” value [2]?
**A.** Its value is “maintained the activity unaltered”.
